Source: patent publication US9056874B2, “Complement pathway modulators and uses thereof” (NOVARTIS AG, priority 2012, dated 2015)
pIC50: −log10 of the molar value.

The compounds below were run against T1, factor B (Homo sapiens, UniProt P00751) (assay: assay of Biological Example 2.7). Settings: assay of Biological Example 2.7 (Table 2).
Type: binding
Design: made in house; host or cells: drosophila cells
Target sequence in this assay (P00751 26-764): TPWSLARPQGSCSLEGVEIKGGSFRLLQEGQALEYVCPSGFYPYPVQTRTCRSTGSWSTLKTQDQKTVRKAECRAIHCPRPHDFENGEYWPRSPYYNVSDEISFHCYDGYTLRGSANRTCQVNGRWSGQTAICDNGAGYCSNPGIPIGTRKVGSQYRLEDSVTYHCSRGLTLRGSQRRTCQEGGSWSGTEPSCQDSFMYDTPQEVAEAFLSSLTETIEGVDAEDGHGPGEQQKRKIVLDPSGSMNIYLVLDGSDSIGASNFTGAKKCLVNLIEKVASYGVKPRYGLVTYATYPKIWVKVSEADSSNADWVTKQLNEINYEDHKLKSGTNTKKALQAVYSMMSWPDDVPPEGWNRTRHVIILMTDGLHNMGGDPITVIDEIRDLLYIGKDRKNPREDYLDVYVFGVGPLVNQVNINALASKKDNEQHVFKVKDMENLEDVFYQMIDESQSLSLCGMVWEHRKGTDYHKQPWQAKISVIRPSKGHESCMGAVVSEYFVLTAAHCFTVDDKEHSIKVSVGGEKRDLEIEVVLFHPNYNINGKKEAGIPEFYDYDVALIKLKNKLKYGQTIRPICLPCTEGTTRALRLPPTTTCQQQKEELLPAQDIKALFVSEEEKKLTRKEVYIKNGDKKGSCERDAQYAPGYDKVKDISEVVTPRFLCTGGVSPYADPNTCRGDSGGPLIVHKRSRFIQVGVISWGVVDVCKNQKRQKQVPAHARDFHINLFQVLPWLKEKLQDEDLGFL

Compound	pIC50
COc1cc(C)c2[nH]ccc2c1C(CC(C)CO)c1nc2cc(C#N)ccc2[nH]1 (racemic) [Example 151-C, (±)-2-(4-Hydroxy-1-(5-methoxy-7-methyl-1H-indol-4-yl)-3-methylbutyl)-1H-benzo[d]imidazole-5-carbonitrile]	7.04
Cc1cc(Br)c(C(C)(N)c2nc3cc(C#N)ccc3[nH]2)c2cc[nH]c12 (single isomer, unassigned; (+)) [137-A b) (+), (+)-2-(1-amino-1-(5-bromo-7-methyl-1H-indol-4-yl)ethyl)-1H-benzo[d]imidazole-5-carbonitrile]	6.92
COc1cc(C)c2[nH]ccc2c1C(OCc1nnc(C)o1)(c1nc2cc(C#N)ccc2[nH]1)C(F)(F)F (racemic) [Example 35-L, (±)-2-(2,2,2-Trifluoro-1-(5-methoxy-7-methyl-1H-indol-4-yl)-1-((5-methyl-1,3,4-oxadiazol-2-yl)methoxy)ethyl)-1H-benzo[d]imidazole-5-carbonitrile]	6.62
COc1cc(C)c2[nH]ccc2c1C(CCC(=O)O)c1nc2cc(C#N)ccc2[nH]1 (racemic) [Example 146-C, (±)-4-(5-Cyano-1H-benzo[d]imidazol-2-yl)-4-(5-methoxy-7-methyl-1H-indol-4-yl)butanoic acid]	7.23
COc1cc(C)c2[nH]ccc2c1C(c1nc2cc(C#N)ccc2[nH]1)C(C)CO (single isomer, unassigned; diastereomer b) [Example 147-F, (±)-2-(3-hydroxy-1-(5-methoxy-7-methyl-1H-indol-4-yl)-2-methylpropyl)-1H-benzo[d]imidazole-5-carbonitrile (Diastereomer B)]	7.00
COc1cc(C)c2[nH]ccc2c1C(NCC(=O)O)(c1nc2cc(C#N)ccc2[nH]1)C(F)(F)F (racemic) [Example 140-B, (±)-2-((1-(5-cyano-1H-benzo[d]imidazol-2-yl)-2,2,2-trifluoro-1-(5-methoxy-7-methyl-1H-indol-4-yl)ethyl)amino)acetic acid]	6.47
COc1cc(C)c2[nH]ccc2c1C(C)(N)c1nc2cc(C#N)ccc2s1 (stereo not drawn) [Example 137-D]	6.77
COc1cc(C)c2[nH]ccc2c1C(CCC(=O)O)c1nc2cc(C#N)ccc2o1 (single isomer, unassigned; (-)) [Example 149-D, (−)-4-(5-cyanobenzo[d]oxazol-2-yl)-4-(5-methoxy-7-methyl-1H-indol-4-yl)butanoic acid]	6.92
COc1c(F)c(C)c2[nH]ccc2c1C(C)(N)c1nc2cc(C#N)ccc2[nH]1 (stereo not drawn) [Example 137-G]	7.54
COc1cc(C)c2[nH]ccc2c1C(N)(c1nc2cc(C#N)ccc2o1)C(F)(F)F (single isomer, unassigned) [137-B b) (tr = 2.7 min), (+) or (−)-2-(1-amino-2,2,2-trifluoro-1-(5-methoxy-7-methyl-1H-indol-4-yl)ethyl)benzo[d]oxazole-5-carbonitrile]	7.70
COc1c(F)c(C)c2[nH]ccc2c1C(C)(OC)c1nc2cc(C#N)ccc2[nH]1 (stereo not drawn) [Example 137-H]	7.51
COc1cc(C)c2[nH]ccc2c1C1(c2nc3cc(C#N)ccc3o2)CC1C(=O)O (racemic) [Example 143, (±)-2-(5-Cyanobenzo[d]oxazol-2-yl)-2-(5-methoxy-7-methyl-1H-indol-4-yl)cyclopropanecarboxylic acid]	5.14
COc1cc(C)c2[nH]ccc2c1C(C)(OC)c1nc2cc(C#N)ccc2o1 (single isomer, unassigned; (+)) [137-K b) (+), (+)-2-(1-methoxy-1-(5-methoxy-7-methyl-1H-indol-4-yl)ethyl)benzo[d]oxazole-5-carbonitrile]	6.09
CCc1cc(C)c2[nH]ccc2c1C(C)(N)c1nc2cc(C#N)ccc2o1 (single isomer, unassigned) [137-F b) (tr = 3.3 min), (+) or (−)-2-(1-amino-1-(5-ethyl-7-methyl-1H-indol-4-yl)ethyl)benzo[d]oxazole-5-carbonitrile]	6.77
Cc1cc(C)c2[nH]ccc2c1C(O)c1nc2ccc(C#N)cc2s1 (stereo not drawn) [Example 137-O]	5.50
COc1cc(C)c2[nH]ccc2c1C(CC(=O)O)c1nc2cc(C#N)ccc2o1 (single isomer, unassigned; (-)) [Example 148-E, (−)-3-(5-cyanobenzo[d]oxazol-2-yl)-3-(5-methoxy-7-methyl-1H-indol-4-yl)propanoic acid]	6.38
Cc1cc(C)c2[nH]ccc2c1C(O)c1nc2cc(C#N)ccc2s1 (stereo not drawn) [Example 137-R]	6.10
COc1cc(C)c2[nH]ccc2c1C(C)(OC)c1cc2ccc(C#N)cc2o1 (stereo not drawn) [Example 137-Y]	6.09
COc1cc(C)c2[nH]ccc2c1C(C)(Cc1nn[nH]n1)c1nc2cc(C#N)ccc2o1 (racemic) [Example 154, (±)-2-(2-(5-Methoxy-7-methyl-1H-indol-4-yl)-1-(2H-tetrazol-5-yl)propan-2-yl)benzo[d]oxazole-5-carbonitrile]	4.68
COc1cc(C)c2[nH]ccc2c1C(NCCO)(c1nc2cc(C#N)ccc2[nH]1)C(F)(F)F (racemic) [Example 139-C, (±)-2-(2,2,2-Trifluoro-1-((2-hydroxyethyl)amino)-1-(5-methoxy-7-methyl-1H-indol-4-yl)ethyl)-1H-benzo[d]imidazole-5-carbonitrile]	6.92
COc1cc(C)c2[nH]ccc2c1C(C)(O)c1cc2cc(C#N)ccc2[nH]1 (stereo not drawn) [Example 137-U]	7.46
COc1cc(C)c2[nH]ccc2c1C(C)(CCC(=O)O)c1nc2cc(C#N)ccc2[nH]1 (racemic) [Example 155-M, (±)-4-(5-Cyano-1H-benzo[d]imidazol-2-yl)-4-(5-methoxy-7-methyl-1H-indol-4-yl)pentanoic acid]	7.70
COc1cc(C)c2[nH]ccc2c1C(C)(O)c1cc2ccc(C#N)cc2o1 (stereo not drawn) [Example 137-X]	6.72
[2H]C([2H])([2H])OC(c1nc2cc(C#N)ccc2[nH]1)(c1c(OC)cc(C)c2[nH]ccc12)C(F)(F)F (single isomer, unassigned; (-)) [137-J b) (−), (−)-2-(2,2,2-trifluoro-1-(^2H3)-methoxy-1-(5-methoxy-7-methyl-1H-indol-4-yl)ethyl)-1H-benzo[d]imidazole-5-carbonitrile]	8.00
[2H]C([2H])([2H])OC(C)(c1nc2cc(C#N)ccc2[nH]1)c1c(OC)cc(C)c2[nH]ccc12 (single isomer, unassigned; (-)) [137-I b) (−), (−)-2-(1-(^2H3)methoxy-1-(5-methoxy-7-methyl-1H-indol-4-yl)ethyl)-1H-benzo[d]imidazole-5-carbonitrile]	8.00
Cc1cc(C2CC2)c(C(OCC(=O)O)(c2nc3cc(C#N)ccc3[nH]2)C(F)(F)F)c2cc[nH]c12 (racemic) [Example 109-C, (±)-2-(1-(5-Cyano-1H-benzo[d]imidazol-2-yl)-1-(5-cyclopropyl-7-methyl-1H-indol-4-yl)-2,2,2-trifluoroethoxy)acetic acid]	7.19

What follows are compounds tested against T1, factor B (assay: factor B inhibition assay of Biological Example 1). Settings: IC50 (nM), assay of Biological Example 1 (Table 1).
Type: biochemical
Design: CVF-Bb complex prepared from purified cobra venom factor (1 μM), recombinant human complement factor B; made in house; host or cells: drosophila cells (factor B); E. coli (factor D used to form the complex)
Target sequence in this assay (P00751 260-764 limits assumed): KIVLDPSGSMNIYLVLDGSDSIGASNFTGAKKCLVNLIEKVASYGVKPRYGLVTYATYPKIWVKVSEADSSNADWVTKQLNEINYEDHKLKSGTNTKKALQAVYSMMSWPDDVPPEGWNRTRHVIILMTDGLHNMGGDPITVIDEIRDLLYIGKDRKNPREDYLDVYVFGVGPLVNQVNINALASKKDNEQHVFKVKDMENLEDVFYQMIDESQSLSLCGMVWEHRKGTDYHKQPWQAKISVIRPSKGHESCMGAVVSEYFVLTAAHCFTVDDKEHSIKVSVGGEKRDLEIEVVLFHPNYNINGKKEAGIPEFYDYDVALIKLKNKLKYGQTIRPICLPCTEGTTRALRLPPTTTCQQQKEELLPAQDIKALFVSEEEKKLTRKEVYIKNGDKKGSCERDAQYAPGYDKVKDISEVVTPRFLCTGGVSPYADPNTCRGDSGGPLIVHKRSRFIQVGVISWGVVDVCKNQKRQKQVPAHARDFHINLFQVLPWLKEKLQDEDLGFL
Target sequence in this assay (Q91132 23-649 partner limits assumed): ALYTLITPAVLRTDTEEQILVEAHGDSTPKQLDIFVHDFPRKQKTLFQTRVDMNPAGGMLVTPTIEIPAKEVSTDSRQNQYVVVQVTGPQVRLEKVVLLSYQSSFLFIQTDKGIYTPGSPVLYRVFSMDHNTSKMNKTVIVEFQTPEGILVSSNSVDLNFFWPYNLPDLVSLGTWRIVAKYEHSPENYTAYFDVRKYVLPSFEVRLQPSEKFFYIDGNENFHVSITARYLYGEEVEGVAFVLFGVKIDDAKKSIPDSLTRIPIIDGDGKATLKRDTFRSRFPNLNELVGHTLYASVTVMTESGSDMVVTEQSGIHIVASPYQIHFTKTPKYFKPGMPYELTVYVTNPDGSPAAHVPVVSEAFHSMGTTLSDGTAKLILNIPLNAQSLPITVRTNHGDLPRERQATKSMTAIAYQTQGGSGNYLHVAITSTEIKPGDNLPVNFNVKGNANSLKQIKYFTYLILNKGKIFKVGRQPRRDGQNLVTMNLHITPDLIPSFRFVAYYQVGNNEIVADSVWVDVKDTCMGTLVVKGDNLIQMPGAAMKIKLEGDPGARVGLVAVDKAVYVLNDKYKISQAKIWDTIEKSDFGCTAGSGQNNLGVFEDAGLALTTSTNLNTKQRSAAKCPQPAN
Target sequence in this assay (Q91132 733-984 partner limits assumed): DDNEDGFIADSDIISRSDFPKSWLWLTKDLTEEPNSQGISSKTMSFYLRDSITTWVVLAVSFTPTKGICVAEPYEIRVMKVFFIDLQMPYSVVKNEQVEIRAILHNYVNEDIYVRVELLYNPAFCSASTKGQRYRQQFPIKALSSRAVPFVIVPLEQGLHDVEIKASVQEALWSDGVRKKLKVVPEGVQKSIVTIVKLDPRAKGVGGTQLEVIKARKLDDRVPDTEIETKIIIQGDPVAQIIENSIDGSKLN
Target sequence in this assay (Q91132 1264-1642 partner limits assumed): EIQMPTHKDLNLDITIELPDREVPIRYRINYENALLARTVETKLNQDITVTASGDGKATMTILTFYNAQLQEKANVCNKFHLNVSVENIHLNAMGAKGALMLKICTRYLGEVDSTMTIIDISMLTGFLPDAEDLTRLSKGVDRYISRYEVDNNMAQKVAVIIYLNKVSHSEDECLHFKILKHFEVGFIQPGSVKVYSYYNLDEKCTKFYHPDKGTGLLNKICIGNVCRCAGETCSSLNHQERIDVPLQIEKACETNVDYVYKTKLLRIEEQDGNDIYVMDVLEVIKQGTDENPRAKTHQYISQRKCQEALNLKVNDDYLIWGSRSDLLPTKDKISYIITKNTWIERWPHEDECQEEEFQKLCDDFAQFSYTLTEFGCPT

Compound	IC50 [nM]
CNC(c1nc2cc(C#N)ccc2[nH]1)(c1c(Br)cc(C)c2[nH]ccc12)C(F)(F)F (single isomer, unassigned; (-)) [106 b) (−), (−)-2-(1-(5-bromo-7-methyl-1H-indol-4-yl)-2,2,2-trifluoro-1-(methylamino)ethyl)-1H-benzo[d]imidazole-5-carbonitrile]	8
